ChEMBL document CHEMBL4312034, “Virtual screening-driven discovery of dual 5-HT6/5-HT2A receptor ligands with pro-cognitive properties” (Eur J Med Chem, 2020)
Calls of active or inactive are those of the source. No cut-off for these calls is given here.

Tests used:
[1] = molecular target: T1, 5-hydroxytryptamine receptor 6 (Homo sapiens, UniProt P50406); assay: Binding affinity to 5-HT6R (unknown origin) assessed as inhibitory constant
[2] = molecular target: T2, 5-hydroxytryptamine receptor 1A (Homo sapiens, UniProt P08908); assay: Displacement of [3H]-8-OH-DPAT from human 5-HT1A receptor expressed in HEK293 cells after 1 hr by microbeta plate reader analysis; type: cell-based
T2 sequence (P08908 whole entry): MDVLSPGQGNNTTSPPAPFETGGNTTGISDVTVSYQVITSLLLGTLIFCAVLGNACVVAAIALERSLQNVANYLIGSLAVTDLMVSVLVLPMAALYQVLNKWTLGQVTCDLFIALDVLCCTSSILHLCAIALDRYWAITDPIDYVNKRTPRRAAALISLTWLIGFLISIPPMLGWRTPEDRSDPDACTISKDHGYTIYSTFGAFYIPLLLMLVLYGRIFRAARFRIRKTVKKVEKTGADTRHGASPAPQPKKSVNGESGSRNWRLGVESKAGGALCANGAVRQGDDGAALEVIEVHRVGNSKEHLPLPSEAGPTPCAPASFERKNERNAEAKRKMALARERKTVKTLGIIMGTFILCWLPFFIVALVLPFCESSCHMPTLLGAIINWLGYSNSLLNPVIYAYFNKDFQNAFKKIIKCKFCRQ

[3] = molecular target: 5-hydroxytryptamine receptor 7 (Homo sapiens, UniProt P34969); assay: Displacement of [3H]-CT from human 5-HT7 receptor expressed in HEK293 cells after 1 hr by microbeta plate reader analysis; type: cell-based
D(2) dopamine receptor = D(2) dopamine receptor (Homo sapiens, UniProt P14416); assay: Displacement of [3H]-raclopride from human D2R expressed in HEK293 cells after 1 hr by microbeta plate reader analysis; type: cell-based
[4] = molecular target: T3, 5-hydroxytryptamine receptor 2A (Homo sapiens, UniProt P28223); assay: Binding affinity to human 5-HT2AR expressed in HEK293 cells by competitive binding assay; type: cell-based
[5] = molecular target: T1, 5-hydroxytryptamine receptor 6; assay: Displacement of [3H]-LSD from human 5-HT6R expressed in HEK293 cells after 1 hr by microbeta plate reader analysis; type: cell-based
[6] = Half life in rat liver microsomes up to 60 mins by HPLC-LC/MS analysis
in vitro = details: rat, liver microsomes
[7] = Mutagenicity in Salmonella typhimurium TA100 at 1 to 10 uM incubated for 90 mins followed by replating on medium without histidine and measured after 72 hrs by Ames test; type: toxicity; details: salmonella enterica subsp. enterica serovar typhimurium
P-gp (ABCB1) [8] = molecular target: T4, P-gp (ABCB1) (Homo sapiens, UniProt P08183); assay: Substrate activity at Pgp (unknown origin) assessed as permeability from basolateral to apical side by cell based assay; type: ADME; details: not told
5-HT2C receptor = molecular target: T5, 5-HT2C receptor (Homo sapiens, UniProt P28335); assay: Antagonist activity at 5-HT2CR (unknown origin) at 10^-6 M relative to control
T5 sequence (P28335 whole entry): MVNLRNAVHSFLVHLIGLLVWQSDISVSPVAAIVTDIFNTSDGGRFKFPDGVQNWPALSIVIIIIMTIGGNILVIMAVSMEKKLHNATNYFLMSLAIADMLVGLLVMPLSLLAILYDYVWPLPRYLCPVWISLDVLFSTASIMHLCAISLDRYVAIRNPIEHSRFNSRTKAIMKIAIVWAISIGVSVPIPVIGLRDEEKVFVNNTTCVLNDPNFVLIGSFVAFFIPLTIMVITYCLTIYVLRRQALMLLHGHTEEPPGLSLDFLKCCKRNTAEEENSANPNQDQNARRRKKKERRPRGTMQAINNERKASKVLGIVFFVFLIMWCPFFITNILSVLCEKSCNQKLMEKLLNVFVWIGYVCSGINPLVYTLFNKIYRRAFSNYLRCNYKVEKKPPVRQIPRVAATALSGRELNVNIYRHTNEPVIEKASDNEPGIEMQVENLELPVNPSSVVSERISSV

[9] = molecular target: T3, 5-hydroxytryptamine receptor 2A; assay: Displacement of [3H]-Ketanserin from recombinant human 5-HT2A receptor at 10^-7 M after 60 mins by radiometric scintillation counting analysis relative to control
[10] = molecular target: T6, Alpha-1A adrenergic receptor (Homo sapiens) (UniProt P35348); assay: Displacement of [3H]prazosin from recombinant human alpha 1A adreno receptor at 10^-6 M after 60 mins by radiometric scintillation counting analysis relative to control
T6 sequence (whole entry): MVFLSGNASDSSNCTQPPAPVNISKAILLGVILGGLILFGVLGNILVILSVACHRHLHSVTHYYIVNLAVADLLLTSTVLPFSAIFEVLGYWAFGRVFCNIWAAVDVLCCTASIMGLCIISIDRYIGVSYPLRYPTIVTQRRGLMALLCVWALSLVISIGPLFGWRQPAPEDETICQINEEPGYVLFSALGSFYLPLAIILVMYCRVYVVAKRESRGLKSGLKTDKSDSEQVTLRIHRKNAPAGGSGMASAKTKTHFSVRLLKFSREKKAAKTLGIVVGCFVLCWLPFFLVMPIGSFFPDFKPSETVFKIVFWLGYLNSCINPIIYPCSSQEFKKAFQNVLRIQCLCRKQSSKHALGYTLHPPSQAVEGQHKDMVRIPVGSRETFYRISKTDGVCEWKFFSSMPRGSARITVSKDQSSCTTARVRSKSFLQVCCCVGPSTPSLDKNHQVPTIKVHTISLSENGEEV

Cytochrome P450 3A4 = Cytochrome P450 3A4 (Homo sapiens, UniProt P08684); assay: Inhibition of human CYP3A4 preincubated for 5 mins followed by NADPH addition and measured after 30 mins by luminescence based microplate reader analysis; type: ADME
[11] = molecular target: 5-hydroxytryptamine receptor 2B (Homo sapiens) (UniProt P41595); assay: Displacement of [3H]-Mesulergine from recombinant human 5-HT2B receptor at 10^-6 M after 60 mins by radiometric scintillation analysis relative to control
[12] = molecular target: T7, Muscarinic acetylcholine receptor M1 (Homo sapiens) (UniProt P11229); assay: Displacement of [3H]pyrilamine from recombinant human M1 receptor at 10^-6 M after 60 mins by radiometric scintillation counting analysis relative to control
T7 sequence (whole entry): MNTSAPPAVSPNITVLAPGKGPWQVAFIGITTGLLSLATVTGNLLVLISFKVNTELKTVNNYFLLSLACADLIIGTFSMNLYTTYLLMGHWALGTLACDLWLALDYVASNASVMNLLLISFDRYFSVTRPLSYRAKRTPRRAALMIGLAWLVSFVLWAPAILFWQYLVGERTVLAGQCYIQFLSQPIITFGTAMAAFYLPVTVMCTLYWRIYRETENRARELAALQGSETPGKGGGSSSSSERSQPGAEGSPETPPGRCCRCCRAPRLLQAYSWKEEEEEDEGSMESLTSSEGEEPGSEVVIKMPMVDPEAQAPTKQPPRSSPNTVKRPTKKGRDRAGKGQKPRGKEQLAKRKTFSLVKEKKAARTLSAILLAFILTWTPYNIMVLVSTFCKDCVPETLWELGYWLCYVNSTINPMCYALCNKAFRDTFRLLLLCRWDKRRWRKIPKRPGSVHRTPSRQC

[13] = molecular target: T1, 5-hydroxytryptamine receptor 6; assay: Antagonist activity at human 5-HT6 receptor expressed in HEK293 cells assessed as inhibition of 5-CT induced cAMP production incubated for 30 mins by TR-FRET assay; type: functional, cell-based
HepG2 [14] = assay: Cytotoxicity against human HepG2 cells assessed as reduction in cell viability after 24 hrs by presto-blue assay; details: HepG2, 24 h
HepG2 [15] = assay: Cytotoxicity against human HepG2 cells after 24 hrs by ToxiLight bioassay; details: HepG2, 24 h
[16] = Ratio of Cmax in brain to plasma in Wistar rat at 10 mg/kg, po; type: ADME, organism-based; details: read-out: BPR
Rattus norvegicus [17] = assay: Reversal of phencyclidine-induced memory impairment in Sprague-Dawley rat at 3 to 10 mg/kg, po for 2 hrs followed by phencyclidine treatment 45 mins prior to testing by novel object recognition test; type: functional, organism-based
Cytochrome P450 2D6 = Cytochrome P450 2D6 (Homo sapiens, UniProt P10635); assay: Inhibition of human CYP2D6 preincubated for 5 mins followed by NADPH addition and measured after 45 mins by luminescence based microplate reader analysis; type: ADME
hERG (KCNH2) = hERG (KCNH2) (Homo sapiens, UniProt Q12809); assay: Inhibition of human ERG at 10^-6 M relative to control
[18] = molecular target: Histamine H1 receptor (Homo sapiens) (UniProt P35367); assay: Displacement of [3H]pyrilamine from recombinant human H1 receptor at 10^-6 M after 60 mins by radiometric scintillation counting analysis relative to control
[19] = molecular target: T3, 5-hydroxytryptamine receptor 2A; assay: Displacement of [3H]-Ketanserin from recombinant human 5-HT2A receptor at 10^-6 M after 60 mins by radiometric scintillation counting analysis relative to control
P-gp (ABCB1) [20] = molecular target: T4, P-gp (ABCB1); assay: Substrate activity at Pgp (unknown origin) assessed as permeability from apical to basolateral side by cell based assay; type: ADME; details: not told
Rattus norvegicus [21] = assay: Reversal of phencyclidine-induced memory impairment in Sprague-Dawley rat at 1 to 3 mg/kg, po for 2 hrs followed by phencyclidine treatment 45 mins prior to testing by novel object recognition test; type: functional, organism-based

T1 sequence (P50406 whole entry): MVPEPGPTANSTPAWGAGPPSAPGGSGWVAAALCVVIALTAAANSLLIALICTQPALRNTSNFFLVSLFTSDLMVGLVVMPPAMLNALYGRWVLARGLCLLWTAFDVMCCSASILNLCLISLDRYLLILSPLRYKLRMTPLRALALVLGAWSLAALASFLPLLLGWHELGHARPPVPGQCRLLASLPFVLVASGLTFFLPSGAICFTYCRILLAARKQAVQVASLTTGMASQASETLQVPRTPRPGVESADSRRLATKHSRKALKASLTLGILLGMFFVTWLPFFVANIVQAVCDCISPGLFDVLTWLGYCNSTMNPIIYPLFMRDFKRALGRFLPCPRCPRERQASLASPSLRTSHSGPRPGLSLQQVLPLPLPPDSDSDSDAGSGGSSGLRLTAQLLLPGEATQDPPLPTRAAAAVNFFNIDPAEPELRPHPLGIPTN
T3 sequence (P28223 whole entry): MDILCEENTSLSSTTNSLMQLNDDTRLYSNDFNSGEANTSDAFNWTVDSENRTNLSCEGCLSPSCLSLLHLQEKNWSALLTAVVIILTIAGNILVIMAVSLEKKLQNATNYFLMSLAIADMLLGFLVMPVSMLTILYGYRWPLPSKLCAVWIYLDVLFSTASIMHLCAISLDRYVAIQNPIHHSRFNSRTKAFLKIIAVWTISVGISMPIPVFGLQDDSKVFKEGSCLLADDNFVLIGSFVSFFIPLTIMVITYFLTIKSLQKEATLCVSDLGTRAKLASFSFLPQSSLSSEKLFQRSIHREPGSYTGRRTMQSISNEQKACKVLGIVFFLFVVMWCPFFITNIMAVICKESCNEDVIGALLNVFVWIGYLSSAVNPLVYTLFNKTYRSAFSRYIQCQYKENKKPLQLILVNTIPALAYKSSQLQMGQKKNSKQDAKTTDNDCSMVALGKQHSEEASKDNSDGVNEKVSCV
Sequence of D(2) dopamine receptor (P14416 whole entry): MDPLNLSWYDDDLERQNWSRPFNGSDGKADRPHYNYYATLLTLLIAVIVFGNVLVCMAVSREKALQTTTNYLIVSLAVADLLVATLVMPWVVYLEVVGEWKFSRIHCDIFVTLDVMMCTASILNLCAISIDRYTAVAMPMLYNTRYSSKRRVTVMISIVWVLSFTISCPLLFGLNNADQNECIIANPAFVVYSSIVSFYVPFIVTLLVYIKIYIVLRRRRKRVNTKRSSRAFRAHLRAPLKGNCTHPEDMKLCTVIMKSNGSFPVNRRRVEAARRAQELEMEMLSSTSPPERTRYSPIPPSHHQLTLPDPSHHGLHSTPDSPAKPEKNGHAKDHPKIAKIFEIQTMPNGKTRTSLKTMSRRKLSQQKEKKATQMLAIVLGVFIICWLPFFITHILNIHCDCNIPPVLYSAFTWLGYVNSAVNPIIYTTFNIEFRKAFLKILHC
Sequence of 5-hydroxytryptamine receptor 7 (P34969 whole entry): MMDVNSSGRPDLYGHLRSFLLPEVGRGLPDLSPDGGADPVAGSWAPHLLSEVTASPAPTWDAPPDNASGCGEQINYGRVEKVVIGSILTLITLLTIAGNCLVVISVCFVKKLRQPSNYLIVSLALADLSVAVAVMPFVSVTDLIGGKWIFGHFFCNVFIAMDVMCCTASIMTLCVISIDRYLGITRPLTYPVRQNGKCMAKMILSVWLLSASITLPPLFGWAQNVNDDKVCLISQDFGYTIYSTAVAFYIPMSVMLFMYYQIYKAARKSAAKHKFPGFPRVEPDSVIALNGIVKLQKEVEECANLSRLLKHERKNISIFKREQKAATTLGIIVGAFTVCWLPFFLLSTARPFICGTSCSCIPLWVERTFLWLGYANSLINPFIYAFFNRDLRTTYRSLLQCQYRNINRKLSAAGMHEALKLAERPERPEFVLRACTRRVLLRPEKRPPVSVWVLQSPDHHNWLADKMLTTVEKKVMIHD
T4 sequence (P08183 whole entry): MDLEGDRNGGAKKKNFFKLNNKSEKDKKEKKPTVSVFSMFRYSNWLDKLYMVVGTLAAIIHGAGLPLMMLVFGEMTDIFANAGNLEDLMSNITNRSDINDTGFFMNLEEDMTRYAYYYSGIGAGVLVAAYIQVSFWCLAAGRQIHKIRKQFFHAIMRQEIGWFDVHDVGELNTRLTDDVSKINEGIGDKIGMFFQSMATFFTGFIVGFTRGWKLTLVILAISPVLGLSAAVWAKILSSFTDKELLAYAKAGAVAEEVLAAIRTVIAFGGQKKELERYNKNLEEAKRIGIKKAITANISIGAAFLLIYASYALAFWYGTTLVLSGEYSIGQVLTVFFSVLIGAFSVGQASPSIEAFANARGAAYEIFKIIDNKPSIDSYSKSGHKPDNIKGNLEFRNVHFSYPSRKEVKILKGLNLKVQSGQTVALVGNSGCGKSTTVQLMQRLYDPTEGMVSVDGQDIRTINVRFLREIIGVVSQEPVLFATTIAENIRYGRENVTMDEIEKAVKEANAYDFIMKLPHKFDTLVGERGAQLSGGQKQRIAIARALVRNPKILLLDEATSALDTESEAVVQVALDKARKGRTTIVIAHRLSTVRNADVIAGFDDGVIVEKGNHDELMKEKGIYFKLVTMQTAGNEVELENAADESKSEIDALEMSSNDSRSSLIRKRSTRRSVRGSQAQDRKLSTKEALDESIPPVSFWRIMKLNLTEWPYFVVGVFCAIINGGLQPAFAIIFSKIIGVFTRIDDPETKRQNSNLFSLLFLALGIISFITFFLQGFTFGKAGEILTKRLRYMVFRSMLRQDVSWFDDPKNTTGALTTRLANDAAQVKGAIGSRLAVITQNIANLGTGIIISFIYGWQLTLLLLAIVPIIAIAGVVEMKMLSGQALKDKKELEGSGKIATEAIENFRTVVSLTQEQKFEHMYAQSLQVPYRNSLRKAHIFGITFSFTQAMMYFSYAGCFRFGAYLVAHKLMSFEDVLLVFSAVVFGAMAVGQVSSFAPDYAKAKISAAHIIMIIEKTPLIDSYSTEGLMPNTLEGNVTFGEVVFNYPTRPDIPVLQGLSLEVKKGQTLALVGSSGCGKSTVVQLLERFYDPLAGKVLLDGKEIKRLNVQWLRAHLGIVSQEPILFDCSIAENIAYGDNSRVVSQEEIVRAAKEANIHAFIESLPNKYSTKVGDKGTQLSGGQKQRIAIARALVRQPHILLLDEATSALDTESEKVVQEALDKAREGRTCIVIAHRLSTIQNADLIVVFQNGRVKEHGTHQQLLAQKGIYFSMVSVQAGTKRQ
Sequence of 5-hydroxytryptamine receptor 2B (Homo sapiens) (P41595 whole entry): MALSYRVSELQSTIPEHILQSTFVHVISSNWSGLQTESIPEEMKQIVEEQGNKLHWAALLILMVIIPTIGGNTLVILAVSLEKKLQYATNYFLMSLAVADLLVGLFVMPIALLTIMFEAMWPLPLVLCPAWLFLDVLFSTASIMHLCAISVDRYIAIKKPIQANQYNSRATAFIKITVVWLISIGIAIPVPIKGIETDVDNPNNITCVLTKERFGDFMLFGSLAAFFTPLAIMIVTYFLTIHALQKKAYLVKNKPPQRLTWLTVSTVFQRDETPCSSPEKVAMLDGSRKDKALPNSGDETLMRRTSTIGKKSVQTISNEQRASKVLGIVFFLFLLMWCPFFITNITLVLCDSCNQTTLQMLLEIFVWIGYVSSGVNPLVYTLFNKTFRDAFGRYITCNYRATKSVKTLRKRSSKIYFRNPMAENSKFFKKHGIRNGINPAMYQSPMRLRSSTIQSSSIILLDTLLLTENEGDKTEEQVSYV
Sequence of Cytochrome P450 2D6 (P10635 whole entry): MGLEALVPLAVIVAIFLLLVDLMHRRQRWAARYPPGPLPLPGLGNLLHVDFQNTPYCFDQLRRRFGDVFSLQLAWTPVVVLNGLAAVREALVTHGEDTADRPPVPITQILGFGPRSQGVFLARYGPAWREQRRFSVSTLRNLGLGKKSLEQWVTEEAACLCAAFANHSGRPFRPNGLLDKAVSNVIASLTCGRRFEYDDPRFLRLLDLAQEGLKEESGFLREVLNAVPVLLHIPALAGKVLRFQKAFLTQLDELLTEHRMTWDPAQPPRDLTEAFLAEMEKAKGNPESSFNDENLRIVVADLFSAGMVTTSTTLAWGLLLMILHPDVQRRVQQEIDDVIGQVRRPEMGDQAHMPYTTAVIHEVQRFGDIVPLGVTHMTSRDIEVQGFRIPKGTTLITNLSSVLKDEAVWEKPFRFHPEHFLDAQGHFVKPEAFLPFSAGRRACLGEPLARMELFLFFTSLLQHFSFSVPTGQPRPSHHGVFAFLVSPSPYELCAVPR
Sequence of Histamine H1 receptor (Homo sapiens) (P35367 whole entry): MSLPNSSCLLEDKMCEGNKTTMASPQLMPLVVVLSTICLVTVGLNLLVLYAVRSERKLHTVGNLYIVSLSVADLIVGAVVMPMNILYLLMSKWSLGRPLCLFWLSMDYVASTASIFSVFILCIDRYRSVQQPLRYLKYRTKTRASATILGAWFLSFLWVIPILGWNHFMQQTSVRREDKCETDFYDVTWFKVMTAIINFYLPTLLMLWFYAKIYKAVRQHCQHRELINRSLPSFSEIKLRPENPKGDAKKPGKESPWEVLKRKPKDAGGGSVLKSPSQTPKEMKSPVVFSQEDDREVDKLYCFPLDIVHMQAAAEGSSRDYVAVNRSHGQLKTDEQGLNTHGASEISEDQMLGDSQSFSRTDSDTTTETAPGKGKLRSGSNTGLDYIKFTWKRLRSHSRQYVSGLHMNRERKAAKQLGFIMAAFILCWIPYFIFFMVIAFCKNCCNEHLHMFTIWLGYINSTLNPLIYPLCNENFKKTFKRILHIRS

SMILES | Ki [1] [µM] | Ki [2] [µM] | Ki [3] [µM] | Ki (D(2) dopamine receptor) [µM] | Ki [4] [µM] | Ki [5] [µM] | also measured
CN1CCN(c2ccnc(SCc3ccccc3Cl)n2)CC1 | 8.88 | – | – | – | – | – | –
Oc1c(CN2CCCC2)cc(CSc2ccccc2)c2cccnc12 | 0.894 | – | – | – | – | – | –
COc1ccc2[nH]cc(CCNCc3ccc(-c4cn[nH]c4)o3)c2c1 | – | 0.146 | 1.5 | 1.73 | 0.028 | 0.121 | –
Oc1ccc(-c2ccc(CNCCc3c[nH]c4ccccc34)o2)cc1 | – | 0.292 | 1.62 | 0.757 | 0.175 | 0.007 | half-life at 1 h ([6]; liver microsomes): 6 min; microsomal CLint at 1 h (in vitro): 222 µL/min/mg
Oc1ccc(-c2ccc(CNCCc3c[nH]c4ncc(F)cc34)o2)cc1 | – | 6.2 | 13.8 | – | 0.032 | 0.025 | half-life at 1 h ([6]; liver microsomes): 14 min; Activity [7]: Non-Toxic; Papp B→A (P-gp (ABCB1) [8]): 3.43 ×10⁻⁶ cm/s; inhibition at 1 µM (5-HT2C receptor): 59.9%; inhibition [9]: 19.1%; inhibition [10]: 35.5%; IC50 (Cytochrome P450 3A4): 7.8 µM; inhibition [11]: -1.3%; inhibition [12]: 4%; Kb [13]: 0.027 µM; IC50 (HepG2 [14]): 5.14 µM; IC50 (HepG2 [15]): 6.2 µM; Kp [16]: 0.7; microsomal CLint at 1 h (in vitro): 103 µL/min/mg; Activity (Rattus norvegicus [17]): Active; IC50 (Cytochrome P450 2D6): 8.4 µM; inhibition at 1 µM (hERG (KCNH2)): 42.2%; inhibition [18]: 3.2%; inhibition [19]: 8.9%; Papp A→B (P-gp (ABCB1) [20]): 8.87 ×10⁻⁶ cm/s
Cc1cc(OCCN(C)C)nc(NCc2ccccc2)n1 | 0.875 | – | – | – | – | – | –
Fc1ccc2c(CCNCc3cccc(OCC(F)(F)C(F)F)c3)c[nH]c2c1 [IDALOPIRDINE] | – | 3.94 | 8.64 | 1.21 | 0.791 | – | half-life at 1 h ([6]; microsomes): 14 min; Activity (Rattus norvegicus [21]): Active
COc1ccc2[nH]cc(CCNCc3ccc(-c4ccc(O)cc4)o3)c2c1 | – | 0.12 | 0.206 | 0.22 | 0.041 | 0.003 | half-life at 1 h ([6]; liver microsomes): 22 min; microsomal CLint at 1 h (in vitro): 63.4 µL/min/mg
CN1CCN(c2nc(NCc3ccccc3)c3c(n2)N(C)NC3)CC1 | 0.007 | – | – | – | – | – | –
COc1ccc2[nH]cc(CCNCc3ccc(-c4cccc(O)c4)o3)c2c1 | – | 0.064 | 3.15 | 0.391 | 0.029 | 0.055 | –
CN1C=C2C(NC(=S)NC2c2ccc(F)cc2)/C(=C\c2ccc(F)cc2)C1 (centres undefined) | 0.596 | – | – | – | – | – | –
